{
  "source": "patent US20050101595A1",
  "about": "“N-containing cycloalkyl-substituted amino-thiazole derivatives and pharmaceutical compositions for inhibiting cell proliferation and methods for their use” (PFIZER INC., priority 2003, published 2005)",
  "key": {"[1]": {"system": "HCT-116 cell line", "assay": "Inhibition of cell growth, tetrazolium salt (MTT) assay", "format": "cell-based", "details": "for HCT-116 % Inhibition at 0.1 μM / HCT-116 5 Inhibition at 0.25 μM: HCT-116 cells; for IC50: Homo sapiens, HCT-116, 120 h, MTT, three to five days, read-out: HCT-116 IC50", "summary_of_the_method": "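HCT-116 cells in McCoy's 5A medium received compound 4 h after plating (0.5% v/v DMSO) and were incubated three to five days at 37° C, 5% CO2. MTT (0.2 mg/mL final) then added for 4 h; DMSO-solubilized formazan read at 540 nm against 0.5% DMSO-treated controls.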"}, "[2]": {"target": "CDK2/Cyclin A (Homo sapiens, UniProt P24941)", "assay": "Inhibition of CDK2/Cyclin A Retinoblastoma Kinase Activity", "format": "biochemical", "details": "for Ki: apparent Ki, CDK2/proteolyzed cyclin A, Rb fragment substrate, 25 μM ATP", "summary_of_the_method": "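Radiometric filter-binding readout of phosphate transfer to an Rb substrate fragment by purified CDK2/truncated cyclin A at 10 or 19 nM. Run at pH 7.4 with 25 μM ATP, 30 °C, 60–75 min, linear rates; background without enzyme subtracted, Ki from competitive-inhibition models.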"}, "[3]": {"target": "human CDK4 and genetically truncated (1-264) cyclin D3 (Homo sapiens, UniProt P11802)", "sequence (P11802 whole entry, the tested form may be a part)": "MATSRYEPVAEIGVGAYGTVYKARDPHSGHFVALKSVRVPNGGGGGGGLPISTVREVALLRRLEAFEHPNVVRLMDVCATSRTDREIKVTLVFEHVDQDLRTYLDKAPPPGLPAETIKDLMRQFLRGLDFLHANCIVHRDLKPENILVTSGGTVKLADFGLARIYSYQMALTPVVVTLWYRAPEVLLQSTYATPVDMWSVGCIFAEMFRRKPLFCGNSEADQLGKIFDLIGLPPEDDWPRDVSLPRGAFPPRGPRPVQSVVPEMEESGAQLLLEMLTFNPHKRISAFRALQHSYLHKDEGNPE", "sequence (P30281 1-264 partner)": "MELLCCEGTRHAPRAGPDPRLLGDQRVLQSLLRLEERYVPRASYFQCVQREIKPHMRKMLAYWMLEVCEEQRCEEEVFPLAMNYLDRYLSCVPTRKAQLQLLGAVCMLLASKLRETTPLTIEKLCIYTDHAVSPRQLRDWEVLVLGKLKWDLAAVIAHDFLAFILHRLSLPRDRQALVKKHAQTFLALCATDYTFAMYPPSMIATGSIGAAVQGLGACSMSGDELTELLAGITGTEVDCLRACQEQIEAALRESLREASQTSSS", "assay": "Inhibition of CDK4/Cyclin D Retinoblastoma Kinase Activity", "format": "biochemical", "details": "for Ki: apparent Ki, CDK4/truncated cyclin D3, Rb fragment substrate, 25 μM ATP", "summary_of_the_method": "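Apparent Ki values come from competitive or competitive tight-binding inhibition fits of background-corrected 32P/33P incorporation into His-tagged Rb fragment (386-928), captured on nitrocellulose. Reaction: 5 nM insect-cell-expressed human CDK4 with cyclin D3 (1-264), 25 μM ATP, pH 7.4 HEPES, 2% DMSO, 30° C., 20 min, extended to 60 min for tight-binding inhibitors.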"}},
  "note": "Structures can show the parent of a compound that is named as a salt. Where two headings read alike, the source gives them in different places.",
  "data": [
    {"smiles": "COC(=O)c1ccc(C(=O)N2CCC(Nc3nc(N)c(C(=O)c4c(F)cccc4F)s3)CC2)cc1", "note": "[Example R151]", "values": [
      {"measurement": "HCT-116 % Inhibition at 0.1 μM", "setting": "[1]", "value": 0, "unit": "%"},
      {"measurement": "HCT-116 5 Inhibition at 0.25 μM", "setting": "[1]", "value": 43},
      {"measurement": "CDK2 % Inhibition at 0.03 μM", "setting": "[2]", "value": 24, "unit": "%"},
      {"measurement": "CDK4 % Inhibition at 0.03 μM", "setting": "[3]", "value": 39, "unit": "%"}
    ]},
    {"smiles": "Nc1nc(NC2CCN(S(=O)(=O)c3ccc(-n4ccnc4)nc3)CC2)sc1C(=O)c1c(F)cccc1F", "note": "[Example G25, 1-{4-Amino-2-[1-(6-imidazol-1-yl-pyridine-3-sulfonyl)-piperidin-4-ylamino]-thiazol-5-yl}-1-(2,6-difluoro-phenyl)-methanone Trifluoroacetic Acid Salt]", "values": [
      {"measurement": "IC50", "setting": "[1]; first HCT-116 column (c4)", "value": 63, "unit": "nM"},
      {"measurement": "IC50", "setting": "[1]; second HCT-116 column (c5)", "value": "> 500", "unit": "nM"},
      {"measurement": "Ki", "setting": "[2]", "value": 0.27, "unit": "nM"},
      {"measurement": "Ki", "setting": "[3]", "value": 0.36, "unit": "nM"}
    ]},
    {"smiles": "CN(C)CCOc1ccc(S(=O)(=O)N2CCC(Nc3nc(N)c(C(=O)c4c(Cl)cccc4Cl)s3)CC2)cn1", "note": "[Example H17, 1-(4-Amino-2-{1-[6-(2-dimethylamino-ethoxy)-pyridine-3-sulfonyl]-piperidin-4-ylamino}-thiazol-5-yl)-1-(2,6-dichloro-phenyl)-methanone Hydrochloride Salt]", "values": [
      {"measurement": "IC50", "setting": "[1]; first HCT-116 column (c4)", "value": 50, "unit": "nM"},
      {"measurement": "IC50", "setting": "[1]; second HCT-116 column (c5)", "value": 170, "unit": "nM"},
      {"measurement": "Ki", "setting": "[2]", "value": 1.8, "unit": "nM"},
      {"measurement": "Ki", "setting": "[3]", "value": 1.7, "unit": "nM"}
    ]},
    {"smiles": "Nc1nc(NC2CCN(C(=O)c3ccccc3C(F)(F)F)CC2)sc1C(=O)c1c(F)cccc1F", "note": "[Example R124]", "values": [
      {"measurement": "HCT-116 % Inhibition at 0.1 μM", "setting": "[1]", "value": 0, "unit": "%"},
      {"measurement": "HCT-116 5 Inhibition at 0.25 μM", "setting": "[1]", "value": 35},
      {"measurement": "CDK2 % Inhibition at 0.03 μM", "setting": "[2]", "value": 18, "unit": "%"},
      {"measurement": "CDK4 % Inhibition at 0.03 μM", "setting": "[3]", "value": 38, "unit": "%"}
    ]},
    {"smiles": "CCCC(CCC)C(=O)N1CCC(Nc2nc(N)c(C(=O)c3c(F)cccc3F)s2)CC1", "note": "[Example R166]", "values": [
      {"measurement": "HCT-116 % Inhibition at 0.1 μM", "setting": "[1]", "value": 0, "unit": "%"},
      {"measurement": "HCT-116 5 Inhibition at 0.25 μM", "setting": "[1]", "value": 44},
      {"measurement": "CDK2 % Inhibition at 0.03 μM", "setting": "[2]", "value": 17, "unit": "%"},
      {"measurement": "CDK4 % Inhibition at 0.03 μM", "setting": "[3]", "value": 37, "unit": "%"}
    ]},
    {"smiles": "C[C@@H]1CN(Cc2ccc(S(=O)(=O)N3CCC(Nc4nc(N)c(C(=O)c5c(F)cccc5F)s4)CC3)cc2)C[C@H](C)N1", "note": "[Example J10, 1-{4-Amino-2-{1-[4-(3,5-dimethyl-piperazin-1-ylmethyl)-benzenesulfonyl]-piperidin-4-ylamino}-thiazol-5-yl)-1-(2,6-difluoro-phenyl)-methanone Hydrochloride Salt.]", "values": [
      {"measurement": "IC50", "setting": "[1]; first HCT-116 column (c4)", "value": 160, "unit": "nM"},
      {"measurement": "IC50", "setting": "[1]; second HCT-116 column (c5)", "value": 2900, "unit": "nM"},
      {"measurement": "Ki", "setting": "[2]", "value": 1.7, "unit": "nM"},
      {"measurement": "Ki", "setting": "[3]", "value": 0.39, "unit": "nM"}
    ]},
    {"smiles": "Cc1ccc(C(=O)N2CCC(Nc3nc(N)c(C(=O)c4c(F)cccc4F)s3)CC2)c(C)c1", "note": "[Example R126]", "values": [
      {"measurement": "HCT-116 % Inhibition at 0.1 μM", "setting": "[1]", "value": 0, "unit": "%"},
      {"measurement": "HCT-116 5 Inhibition at 0.25 μM", "setting": "[1]", "value": 33},
      {"measurement": "CDK2 % Inhibition at 0.03 μM", "setting": "[2]", "value": 43, "unit": "%"},
      {"measurement": "CDK4 % Inhibition at 0.03 μM", "setting": "[3]", "value": 57, "unit": "%"}
    ]},
    {"smiles": "CN1CCC(C(=O)N2CCC(Nc3nc(N)c(C(=O)c4c(F)cccc4F)s3)CC2)CC1", "note": "[Example D1, 1-(4-Amino-2-{1-[1-(1-methyl-piperidin-4-yl)-methanoyl]-piperidin-4-ylamino}-thiazol-5-yl)-1-(2,6-difluoro-phenyl)-methanone]", "values": [
      {"measurement": "IC50", "setting": "[1]; first HCT-116 column (c4)", "value": "> 5000", "unit": "nM"},
      {"measurement": "Ki", "setting": "[2]", "value": 460, "unit": "nM"},
      {"measurement": "Ki", "setting": "[3]", "value": 130, "unit": "nM"}
    ]},
    {"smiles": "Nc1nc(NC2CCN(C(=O)CC3CCCC3)CC2)sc1C(=O)c1c(F)cccc1F", "note": "[Example R96]", "values": [
      {"measurement": "HCT-116 % Inhibition at 0.1 μM", "setting": "[1]", "value": 2, "unit": "%"},
      {"measurement": "HCT-116 5 Inhibition at 0.25 μM", "setting": "[1]", "value": 36},
      {"measurement": "CDK2 % Inhibition at 0.03 μM", "setting": "[2]", "value": "−20", "unit": "%"},
      {"measurement": "CDK4 % Inhibition at 0.03 μM", "setting": "[3]", "value": "−18", "unit": "%"}
    ]},
    {"smiles": "CCCCCc1ccc(C(=O)N2CCC(Nc3nc(N)c(C(=O)c4c(F)cccc4F)s3)CC2)cc1", "note": "[Example R158]", "values": [
      {"measurement": "HCT-116 % Inhibition at 0.1 μM", "setting": "[1]", "value": 0, "unit": "%"},
      {"measurement": "HCT-116 5 Inhibition at 0.25 μM", "setting": "[1]", "value": 41},
      {"measurement": "CDK2 % Inhibition at 0.03 μM", "setting": "[2]", "value": 24, "unit": "%"},
      {"measurement": "CDK4 % Inhibition at 0.03 μM", "setting": "[3]", "value": 44, "unit": "%"}
    ]},
    {"smiles": "N#Cc1ccccc1S(=O)(=O)N1CCC(Nc2nc(N)c(C(=O)c3c(F)cccc3F)s2)CC1", "note": "[Example F9, 2-{4-[4-Amino-5-(2,6-difluoro-benzoyl)-thiazol-2-ylamino]-piperidine-1-sulfonyl}-benzonitrile]", "values": [
      {"measurement": "IC50", "setting": "[1]; first HCT-116 column (c4)", "value": 140, "unit": "nM"},
      {"measurement": "IC50", "setting": "[1]; second HCT-116 column (c5)", "value": 250, "unit": "nM"},
      {"measurement": "Ki", "setting": "[2]", "value": 2, "unit": "nM"},
      {"measurement": "Ki", "setting": "[3]", "value": 3.6, "unit": "nM"}
    ]},
    {"smiles": "COc1c(C(=O)N2CCC(Nc3nc(N)c(C(=O)c4c(F)cccc4F)s3)CC2)csc1Cl", "note": "[Example R49]", "values": [
      {"measurement": "HCT-116 % Inhibition at 0.1 μM", "setting": "[1]", "value": 0, "unit": "%"},
      {"measurement": "HCT-116 5 Inhibition at 0.25 μM", "setting": "[1]", "value": 61},
      {"measurement": "CDK2 % Inhibition at 0.03 μM", "setting": "[2]", "value": 34, "unit": "%"},
      {"measurement": "CDK4 % Inhibition at 0.03 μM", "setting": "[3]", "value": 55, "unit": "%"}
    ]},
    {"smiles": "CN1CCCC(Oc2ccc(S(=O)(=O)N3CCC(Nc4nc(N)c(C(=O)c5c(F)cccc5F)s4)CC3)cn2)C1", "note": "(stereo not drawn) [Example H16, 1-(4-Amino-2-{1-[6-(1-methyl-piperidin-3RS-yloxy)-pyridin-3-sulfonyl]-piperidin-4-ylamino}-thiazol-5-yl)-1-(2,6-difluoro-phenyl)-methanone Hydrochloride]", "values": [
      {"measurement": "IC50", "setting": "[1]; first HCT-116 column (c4)", "value": 57, "unit": "nM"},
      {"measurement": "IC50", "setting": "[1]; second HCT-116 column (c5)", "value": 500, "unit": "nM"},
      {"measurement": "Ki", "setting": "[2]", "value": 0.48, "unit": "nM"},
      {"measurement": "Ki", "setting": "[3]", "value": 0.28, "unit": "nM"}
    ]}
  ]
}
